# Assay results as given in PubChem BioAssay AID588383 (NMMLSC, 2011).
# Active and inactive are the calls of the source.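 Rule for the calls: active = half-effect concentration at most 10 µM with response change of 30% or more and an acceptable curve fit; inactive = the rest.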
# Target: GTPase HRas (Homo sapiens) (UniProt P01112)
# Assay: wild-type Ras fluorescent GTP binding inhibition – biochemical, multiplex bead flow cytometry, round 1, selectivity assay for Cdc42 probe extension project, SAR follow-up (AID 588383)
# Settings: GST-Ras wt beads, Bodipy-FL-GTP binding; for % response, lower = inhibition: at 100 µM (top of the series)
# GTPase HRas (Homo sapiens), sequence (P01112 whole entry, looked up): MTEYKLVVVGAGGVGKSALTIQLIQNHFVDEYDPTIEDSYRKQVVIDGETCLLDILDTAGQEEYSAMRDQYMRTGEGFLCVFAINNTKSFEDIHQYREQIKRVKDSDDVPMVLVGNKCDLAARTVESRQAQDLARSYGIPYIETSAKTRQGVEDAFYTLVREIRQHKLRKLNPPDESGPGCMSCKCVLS
"% response, lower = inhibition",EC50,Compound
inactive,,COc1ccc(C2CC(c3ccccc3)=NN2c2ccc(S(N)(=O)=O)cc2)cc1 (centres undefined)
,78 nM,CC1(C)Cc2c(sc(NC(=S)NC(=O)c3ccccc3)c2C(=O)O)CO1
inactive,,NS(=O)(=O)c1ccc(N2N=C(c3ccccc3)CC2c2ccccc2)cc1 (centres undefined)
inactive,,O=C(C#Cc1ccccc1)c1cccc([N+](=O)[O-])c1
